{"source": "patent US20090181910A1", "about": "“METHOD OF PREVENTION AND ALLEVIATION OF TOXICITY BY MODULATION OF IRF3” (priority 2006, published 2009)", "key": {"[1]": {"details": "mouse, in vivo"}, "ZF5": {"tested_on": "ZF5", "test": "BMM Q-PCR: ZF5 mRNA", "type": "cell-based, Murine", "details": "polyI:C and LPS; data not shown"}, "RXRα [2]": {"tested_on": "RXRα", "test": "Liver RNA Q-PCR, polyI:C/APAP-treated mice: RXRα", "type": "in vivo", "details": "single polyI:C 100 μg i.v. 24 h before APAP 350 mg/kg i.p.; wildtype vs IRF3−/− mice; FIG. 1A", "procedure": "FIG. 1: PolyI:C repression of RXRα and cytochrome P450 family members involves IRF3. Wildtype or IRF3−/− mice (n=4) fasted and were treated with 0.1% NaCl or polyI:C (100 μg) intravenous (i.v.) 24 hours prior to treatment with APAP (350 mg/kg) by intraperitoneal (i.p.) injection. 6 hours post-APAP treatment liver samples were isolated. Liver RNA analyzed by Q-PCR for (A) RXRα (B) Cyp1A2 and (C) Cyp3A11.\nAge and sex matched 6-9 week old mice were used for all experiments. C57/B16 mice were obtained from Jackson Laboratory. IRF3^−/− mice were obtained from Dr. T. Taniguchi. For APAP hepatotoxicity analysis, mice fasted for […] and then administered Vehicle (0.1% NaCl) or APAP (175-600 mg/kg) by intraperitoneal injection (i.p.). For serum and histological studies, mice were sacrificed at 6-7 hours post injection and serum and liver samples were retrieved. For survival studies, mice were studied for up to 5 days. For polyI:C studies, mice were also treated with 0.1% NaCl or polyI:C (100 μg) intravenous (i.v.) 12-24 hours prior to APAP treatment. […] Serum alanine aminotransferase (ALT) levels were determined using manufacturer's protocol (TECO Diagnostics). […]\nFor quantitative realtime PCR (Q-PCR), total RNA was isolated and cDNA synthesized according to manufacturer's protocol: Trizol (RNA) and Bio-Rad iScript (cDNA). […]"}, "RXRα [3]": {"tested_on": "RXRα", "test": "BMM anti-RXRα Western blot", "type": "cell-based, Murine", "details": "polyI:C and LG268 treatment, 24 hrs; FIG. 8e"}, "[4]": {"test": "Serum ALT in APAP hepatotoxicity"}, "[5]": {"test": "Survival following APAP treatment", "type": "in vivo, mice", "details": "for survival against APAP overdose: APAP 600 mg/kg", "procedure": "FIG. 4: Percentage survival following APAP treatment with or without polyI:C. (A) Wildtype (n=8) fasted and were treated with 0.1% NaCl or polyI:C (100 μg) intravenous (i.v.) 24 hours prior to treatment with APAP (600 mg/kg) by intraperitoneal (i.p.) injection. (B) Wildtype and IRF3−/− (n=6-8) fasted and were treated with 0.1% NaCl or polyI:C (100 μg) intravenous (i.v.) 24 hours prior to treatment with APAP (600 mg/kg) by intraperitoneal (i.p.) injection. (C) Wildtype mice (n=6-8) fasted and were treated with 0.1% NaCl or polyI:C (100 μg) intravenous (i.v.) and PCN (75 mg/kg) intraperitoneal (i.p.) 24 hours prior to treatment with APAP (175 mg/kg) by intraperitoneal (i.p.) injection.\nAge and sex matched 6-9 week old mice were used for all experiments. C57/B16 mice were obtained from Jackson Laboratory. IRF3^−/− mice were obtained from Dr. T. Taniguchi. For APAP hepatotoxicity analysis, mice fasted for […] and then administered Vehicle (0.1% NaCl) or APAP (175-600 mg/kg) by intraperitoneal injection (i.p.). For serum and histological studies, mice were sacrificed at 6-7 hours post injection and serum and liver samples were retrieved. For survival studies, mice were studied for up to 5 days. For polyI:C studies, mice were also treated with 0.1% NaCl or polyI:C (100 μg) intravenous (i.v.) 12-24 hours prior to APAP treatment. To study the effects of PCN on APAP treatment, mice were treated with PCN (75 mg/kg) or control (1% DMSO, corn oil) by intraperitoneal (i.p.) 12-24 hours prior to APAP treatment. To study the effects of ethanol (EtOH) on APAP treatment, mice were given 20% EtOH in water ad libidum for 5 days prior to APAP therapy. PolyI:C treatment for these experiments occurred at Day 3 and Day 5. Serum alanine aminotransferase (ALT) levels were determined using manufacturer's protocol (TECO Diagnostics). For H&E staining, liver samples were fixed in formalin for 48 hours. H&E stainings were done by UCLA Tissue Procurement Core Laboratory (TPCL)."}, "[6]": {"details": "Hendrix et al. 1993; cited from earlier work"}, "RXRα [7]": {"tested_on": "RXRα", "parameters": "species or system mice", "details": "mouse, in vivo"}, "ZNF202": {"tested_on": "ZNF202", "test": "BMM Q-PCR: ZNF202 mRNA", "type": "cell-based, Murine", "details": "polyI:C and LPS; data not shown"}, "CRBPII": {"tested_on": "CRBPII", "test": "RAW 264.7 Q-PCR: CRBPII", "type": "cell-based, murine"}, "Huh7 cells": {"tested_on": "Huh7 cells", "test": "Rhodamine 123 assay, mitochondrial membrane potential", "type": "cell-based, human", "details": "Huh7 cells co-treated with ASA 20 μg/ml and polyI:C 1 μg/ml transfected, 24 hours; mock-transfected vs RXRα overexpressing", "procedure": "FIG. 15: PolyI:C potentiation of ASA-induced mitochondrial damage. pBabe-Huh7 cells (Huh7_MT) and pBabe-RXRα-Huh7 cells (Huh7 RXRα) were stimulated with Control (DMSO) and ASA (20 μg/ml) with or without polyI:C (1 μg/ml, transfected) for 24 hours. Cells were treated with 5 μg/ml of rhodamine 123 (Invitrogen) for 30 min, trypsinized and resuspended in PBS. Flow cytometry was done to determine rhodamine 123 uptake."}, "UGT1A6": {"tested_on": "UGT1A6", "parameters": "species or system mice", "details": "mouse, in vivo"}, "[8]": {"tested_on": "hepatic LXR, FXR and PPARα target genes", "type": "cell-based, human"}, "CYP3A4": {"tested_on": "CYP3A4", "test": "Huh7 Q-PCR: CYP3A4"}, "[9]": {"test": "H&E liver histology in APAP hepatotoxicity", "details": "for prevention of APAP-induced necrosis: FIG. 3A"}, "[10]": {"details": "mouse, in vivo", "remark": "listed apart in the source"}}, "data": [{"substance": "polyinosinic:polycytidylic acid [polyI:C]", "values": [{"measurement": "hepatotoxicity, agent alone", "setting": "[1]", "value": "did not cause significant hepatotoxicity"}, {"measurement": "ZF5 mRNA levels", "setting": "ZF5", "value": "unaffected"}, {"measurement": "RXRα mRNA in liver", "setting": "RXRα [2]", "value": "potent downregulation of RXRα mRNA in an IRF3 dependent manner"}, {"measurement": "RXRα protein levels in IRF3^−/− BMMs", "setting": "RXRα [3]", "value": "significantly higher than in WT or IFNAR^−/− BMMs"}, {"measurement": "prevention of ethanol-promoted APAP induction of serum ALT", "setting": "[4]; 20% EtOH 5 days, polyI:C Day 3 and Day 5, APAP 175 mg/kg, FIG. 2C", "value": "effective at preventing ethanol from promoting APAP induction of serum ALT levels"}, {"measurement": "prevention of PCN/APAP induction of serum ALT", "setting": "[4]; polyI:C 100 μg i.v. and PCN 75 mg/kg 24 h before APAP 175 mg/kg, FIG. 2B", "value": "capable of preventing PCN/APAP induction of serum ALT levels"}, {"measurement": "prevention of APAP-induced serum ALT increase", "setting": "[4]; polyI:C 100 μg i.v. pretreatment, APAP 350 mg/kg, wildtype and IRF3-deficient mice, FIG. 2A", "value": "effectively prevented such increase in serum ALT only when IRF3 was present"}, {"measurement": "survival against APAP overdose", "setting": "[5]; IRF3 deficient mice, FIG. 4B", "value": "did not protect from APAP overdose"}, {"measurement": "survival with APAP plus PCN", "setting": "[5]; polyI:C 100 μg i.v. and PCN 75 mg/kg before APAP 175 mg/kg, FIG. 4C", "value": "prevents overdose from the combination of APAP and cytochrome P450 inducers such as PCN"}, {"measurement": "survival against APAP overdose", "setting": "[5]; wildtype mice, polyI:C 100 μg i.v. 24 h prior, FIG. 4A", "value": "extremely effective at preventing death from APAP overdose"}, {"measurement": "toxicity of polyI:C", "setting": "[6]", "value": "can be taken at high dosages without any toxicity"}, {"measurement": "IRF3 dependence of repression of RXRα and hepatic nuclear receptor target genes", "setting": "RXRα [7]", "value": "IRF3 was critical for the repression of RXRα and hepatic nuclear receptor target genes"}, {"measurement": "RXRα mRNA expression in liver", "setting": "RXRα [7]; iv", "value": "significant reduction in RXRα mRNA expression"}, {"measurement": "ZNF202 mRNA levels", "setting": "ZNF202", "value": "unaffected"}, {"measurement": "9cRA induction of CRBPII", "setting": "CRBPII", "value": "unable to repress 9cRA induction of CRBPII"}, {"measurement": "mitochondrial membrane potential (rhodamine 123)", "setting": "Huh7 cells", "value": "loss of mitochondrial membrane potential in mock-transfected Huh7 cells co-treated with ASA and polyI:C, but not in Huh7 cells overexpressing RXRα"}, {"measurement": "IRF3 dependence of UGT1A6 repression", "setting": "UGT1A6", "value": "dependent on IRF3"}, {"measurement": "effect on ASA or PCN induction of UGT1A6 mRNA", "setting": "UGT1A6", "value": "diminished"}, {"measurement": "effect on LXR, FXR and PPARα-mediated induction of target genes", "setting": "[8]", "value": "inhibited"}, {"measurement": "rifampicin induction of CYP3A4", "setting": "CYP3A4; Huh7 cells with RXRα overexpression, FIG. 10e", "value": "no longer repressed CYP3A4"}, {"measurement": "rifampicin induction of CYP3A4", "setting": "CYP3A4; Huh7 cells, rifampicin 25 μM, transfected polyI:C 2 μg/ml", "value": "capable of repressing rifampicin induction"}, {"measurement": "prevention of cell necrosis", "setting": "[9]; PCN or ethanol plus lower levels of APAP, FIG. 3B", "value": "prevents cell necrosis in these treatments as well"}, {"measurement": "prevention of APAP-induced necrosis", "setting": "[9]; mice deficient in IRF3, APAP 350 mg/kg", "value": "only slightly reduced the severity of necrosis"}, {"measurement": "prevention of APAP-induced necrosis", "setting": "[9]; wildtype mice, APAP 350 mg/kg", "value": "completely prevented such necrosis"}, {"measurement": "liver damage", "setting": "[10]", "value": "strongly induced liver damage"}]}]}
